From patent US20040038855A1 (priority 1999, published 2004)
Where a name gives a salt, the structure may show the parent alone. Read-outs that look alike come from different tables or passages of the source. One block for each compound: values may come before it.

Legend:
human GALR2 receptor = target: T1, human GALR2 receptor (Homo sapiens, UniProt O43603); test: Binding affinity at the human GALR2 receptor
T1 construct: expressed in transfected cells
T1 sequence (O43603 1-387): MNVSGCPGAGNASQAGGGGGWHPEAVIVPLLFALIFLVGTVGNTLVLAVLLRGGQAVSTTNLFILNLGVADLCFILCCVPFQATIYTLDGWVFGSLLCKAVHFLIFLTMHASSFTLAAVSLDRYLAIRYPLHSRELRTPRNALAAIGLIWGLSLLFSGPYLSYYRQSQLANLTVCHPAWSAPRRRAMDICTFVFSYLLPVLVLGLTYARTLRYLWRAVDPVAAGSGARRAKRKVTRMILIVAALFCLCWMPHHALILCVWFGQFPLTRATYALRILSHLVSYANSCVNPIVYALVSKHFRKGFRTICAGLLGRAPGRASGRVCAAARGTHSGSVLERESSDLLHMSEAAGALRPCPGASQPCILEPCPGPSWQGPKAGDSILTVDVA

rat 5HT2C receptor = target: T2, rat 5HT2C receptor (Rattus norvegicus, UniProt P08909); test: Binding affinity at the rat 5HT2C receptor
T2 construct: expressed in transfected cells
T2 sequence (P08909 33-460): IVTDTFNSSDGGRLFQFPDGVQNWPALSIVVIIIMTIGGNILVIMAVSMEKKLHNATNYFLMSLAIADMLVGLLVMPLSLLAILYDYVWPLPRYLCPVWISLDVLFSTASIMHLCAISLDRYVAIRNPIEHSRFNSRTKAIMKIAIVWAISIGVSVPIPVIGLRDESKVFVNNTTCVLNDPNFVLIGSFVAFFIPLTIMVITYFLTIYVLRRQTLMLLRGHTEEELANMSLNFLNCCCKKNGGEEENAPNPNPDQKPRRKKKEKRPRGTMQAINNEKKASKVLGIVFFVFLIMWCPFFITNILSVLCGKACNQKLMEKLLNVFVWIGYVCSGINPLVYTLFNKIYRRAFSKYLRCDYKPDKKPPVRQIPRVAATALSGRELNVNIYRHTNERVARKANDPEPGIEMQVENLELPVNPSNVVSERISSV
How it was run: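 Affinity measured by a literature binding protocol using rat 5HT2C cDNA expressed heterologously.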

human α2C adrenoceptor = target: T3, human α2C adrenoceptor (Homo sapiens, UniProt P18825); test: Binding affinity at the human α2C adrenergic receptor
T3 construct: expressed in transfected cells
T3 sequence (P18825 1-462): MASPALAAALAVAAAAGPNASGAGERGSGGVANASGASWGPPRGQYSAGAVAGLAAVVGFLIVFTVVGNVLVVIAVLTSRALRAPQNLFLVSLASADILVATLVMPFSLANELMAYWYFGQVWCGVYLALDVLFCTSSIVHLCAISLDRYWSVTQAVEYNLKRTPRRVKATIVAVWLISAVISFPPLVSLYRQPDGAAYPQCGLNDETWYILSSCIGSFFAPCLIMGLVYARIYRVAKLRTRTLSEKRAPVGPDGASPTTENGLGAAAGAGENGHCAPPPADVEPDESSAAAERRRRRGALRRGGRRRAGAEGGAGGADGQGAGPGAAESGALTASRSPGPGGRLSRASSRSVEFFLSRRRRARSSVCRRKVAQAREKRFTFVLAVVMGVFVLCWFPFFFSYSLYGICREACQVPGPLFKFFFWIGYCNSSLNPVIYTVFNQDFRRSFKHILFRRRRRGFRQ
Source text: Other receptors: Cell membranes expressing human dopamine D1, D2, D4 and rat D3 receptors were purchased through BioSignal, Inc. (Montreal, Canada). Binding assays using the histamine H1 receptor; dopamine receptors; and α1A, α1B, and α2 adrenergic receptors may be carried out according to the procedures described in U.S. Pat. No. 5,780,485, the disclosure of which is hereby incorporated by reference in its entirety into this application. Binding assays using the dopamine D5 receptor may be carried out according to the procedures described in U.S. Pat. No. 5,882,855, the disclosure of which is hereby incorporated by reference in its entirety into this application. Binding assays for the human α1D adrenergic receptor may be carried out according to the procedures described in U.S. Pat. No. 6,156,518, the disclosure of which is hereby incorporated by reference in its entirety into this application.

human MCH1 receptor = human MCH1 receptor (Homo sapiens, UniProt Q99705); test: Intracellular calcium response to MCH in COS-7 cells transfected with MCH1 (fluo-3, FLIPR): antagonist potency; format: cell-based; set-up: expressed in transfected cells; host or cells: COS-7
Sequence of human MCH1 receptor (Q99705 whole entry): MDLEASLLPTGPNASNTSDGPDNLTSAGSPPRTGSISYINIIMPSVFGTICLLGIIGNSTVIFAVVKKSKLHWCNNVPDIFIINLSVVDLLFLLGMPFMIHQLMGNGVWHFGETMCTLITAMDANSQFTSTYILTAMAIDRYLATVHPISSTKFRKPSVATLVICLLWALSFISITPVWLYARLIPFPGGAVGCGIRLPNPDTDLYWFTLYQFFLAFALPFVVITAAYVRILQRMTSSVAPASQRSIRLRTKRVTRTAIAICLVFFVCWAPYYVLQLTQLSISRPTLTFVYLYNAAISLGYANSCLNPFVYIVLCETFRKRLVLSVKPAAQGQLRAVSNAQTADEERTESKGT
Source text: MCH1 antagonist compounds were identified by their ability to inhibit the MCH-elicited response. […]. From the IC50 values, the antagonist potency (Kb)was derived using the Cheng-Prussof correction (Lazareno and Birdsall, 1993). […]

[1] = target: T4, human H2 histamine receptor (Homo sapiens, UniProt P25021); test: Binding affinity at the human histamine H2 receptor
T4 construct: expressed in transfected cells
T4 sequence (P25021 whole entry): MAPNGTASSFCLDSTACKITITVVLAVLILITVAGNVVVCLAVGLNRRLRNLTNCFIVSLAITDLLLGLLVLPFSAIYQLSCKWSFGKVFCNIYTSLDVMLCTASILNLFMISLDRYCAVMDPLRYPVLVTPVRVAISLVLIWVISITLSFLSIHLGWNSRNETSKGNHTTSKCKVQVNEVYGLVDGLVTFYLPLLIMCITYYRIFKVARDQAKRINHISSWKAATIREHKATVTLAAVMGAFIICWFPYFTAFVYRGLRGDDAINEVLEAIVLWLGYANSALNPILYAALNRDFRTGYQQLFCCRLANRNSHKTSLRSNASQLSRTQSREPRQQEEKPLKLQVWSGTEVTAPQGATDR
Source text: Binding studies for the β-adrenoceptor may be performed according to the method of Riva and Creese, 1989. Binding assays for the remainder of the receptors may be carried out according to the procedures described in U.S. Pat. No. 5,780,485, the disclosure of which is hereby incorporated by reference in its entirety into this application.

Compound: 2-(3,4-DIFLUOROPHENYL)4,5-DIHYDROIMIDAZOLE-1-CARBOXYLIC ACID {3-[4-PHENYL-4-(4-BROMO-5-METHYLTHIOPNEN-2-YL)]-PROPYL}-AMIDE [Example 19]
Ki (human GALR2 receptor; Table 3a, read-out: hGALR2 Ki): > 50 µM | Ki (human GALR2 receptor; Table 3b, read-out: hGALR2 Ki): > 50 µM | Ki (rat 5HT2C receptor; Table 3a, read-out: r5HT2C Ki): 11.7 µM | Ki (rat 5HT2C receptor; Table 3b, read-out: r5HT2C Ki): 11.7 µM | Ki (human α2C adrenoceptor; Table 3d, read-out: hα2C Ki): 0.174 µM | Kb (human MCH1 receptor; Table 3a, antagonist potency, read-out: hMCH1 Kb): 7 nM | Kb (human MCH1 receptor; Table 3b, antagonist potency, read-out: hMCH1 Kb): 7 nM | Kb (human MCH1 receptor; antagonist potency, inhibition of the response to 500 nM MCH, IC50 corrected by Cheng-Prussof, read-out: Kb (nM) hMCH1): 7 nM

Compound: COC(=O)C1=C(C)NC(=O)N(C(=O)NCCCN2CCC3(CC2)OCc2ccccc23)C1c1ccc2nonc2c1 (single isomer, unassigned) [Example 18, HYDROCHLORIDE]
Ki (human GALR2 receptor): > 50 µM | Ki (human GALR2 receptor; read-out: hGALR2 Ki, Table 3b): > 50 µM | Ki (rat 5HT2C receptor; Table 3a, read-out: r5HT2C Ki): 32.6 µM | Ki (human α2C adrenoceptor): 0.096 µM | Ki [1]: 0.944 µM | Kb (human MCH1 receptor): 1 nM

Compound: CCC1=C(C(=O)O)C(c2ccc(F)c(F)c2)N(C(=O)NCCCN2CCC3(CC2)OCc2ccccc23)C(=O)N1 (single isomer, unassigned; (+)) [Example 4, (+)-1,2,3,6-TETRAHYDRO-1-1N-[4-(BENZO-4′,5′(H)FURAN)PIPERIDIN-1-YL]PROPYL}-CARBOXAMIDO-4-ETHYL-6-(3,4-DIFLUOROPHENYL)-2-OXO-PYRIMIDINE-5 CARBOXYLIC ACID HYDROCHLORIDE]
Ki (human GALR2 receptor; Table 3a, read-out: hGALR2 Ki): > 50 µM | Ki (human GALR2 receptor; Table 3b, read-out: hGALR2 Ki): > 50 µM | Ki (rat 5HT2C receptor; Table 3a, read-out: r5HT2C Ki): 34.8 µM | Kb (human MCH1 receptor; read-out: Kb (nM) hMCH1): 187 nM

Ki (human GALR2 receptor; Table 3a, read-out: hGALR2 Ki): > 50 µM | Ki (human GALR2 receptor; Table 3b, read-out: hGALR2 Ki): > 50 µM | Ki (rat 5HT2C receptor; Table 3a, read-out: r5HT2C Ki): > 50 µM | Ki (rat 5HT2C receptor; Table 3b, read-out: r5HT2C Ki): > 50 µM | Kb (human MCH1 receptor; read-out: Kb (nM) hMCH1): 42 nM
Compound: COCC1=C(C(=O)OC)C(c2ccc(F)c(F)c2)N(C(=O)NCCCN2CCC(c3cccc(NC(C)=O)c3)CC2)C(=O)N1 (single isomer, unassigned; (-)) [Example 1, (−)-1,2,3,6-TETRAHYDRO-1-{N-[4-(3,-ACETAMIDO)-PHENYLPIPERIDIN-1-YL]PROPYL}CARBOXAMIDO-4-METHOXYMETHYL-6-(3,4-DIFLUORO-PHENYL)-2-OXOPYRIMIDINE-5-CARBOXYLIC ACID METHYL ESTER]

Compound: CCCCN(CCCC)c1ccc(CN2CCC(CNC(=O)N3C(=O)NC(C)=C(C(=O)OC)C3c3ccc4nonc4c3)CC2)cc1 (stereo not shown) [Example 6]
Ki (human GALR2 receptor; Table 3a, read-out: hGALR2 Ki): 14.9 µM | Ki (human GALR2 receptor; Table 3b, read-out: hGALR2 Ki): 14.9 µM | Ki (rat 5HT2C receptor; Table 3a, read-out: r5HT2C Ki): 25.5 µM | Ki (rat 5HT2C receptor; Table 3b, read-out: r5HT2C Ki): 25.5 µM

Compound: COCC1=C(C(=O)OC)[C@H](c2ccc(F)c(F)c2)N(C(=O)NCCCN2CCC(c3cccc(NC(C)=O)c3)CC2)C(=O)N1 [Example 10, (+)-1,2,3,6-TETRAHYDRO-1-{N-[4-(3,-ACETAMIDO)-PHENYLPIPERIDIN-1-YL]PROPYL}CARBOXAMIDO-4-METHOXYMETHYL-6-(3,4-DIFLUORO-PHENYL)-2-OXOPYRIMIDINE-5-CARBOXYLIC ACID METHYL ESTER]
Ki (human GALR2 receptor; Table 3a, read-out: hGALR2 Ki): > 50 µM | Ki (human GALR2 receptor; Table 3b, read-out: hGALR2 Ki): > 50 µM | Ki (rat 5HT2C receptor; Table 3a, read-out: r5HT2C Ki): 29.6 µM | Ki ([1]; Table 3e, * = >50000, read-out: hH2 Ki): > 50 µM | Kb (human MCH1 receptor; intracellular calcium mobilization assay, read-out: antagonist potency (Kb)): 0.3 nM

Ki (human GALR2 receptor; Table 3a, read-out: hGALR2 Ki): 4.73 µM | Ki (human GALR2 receptor; Table 3b, read-out: hGALR2 Ki): 4.73 µM | Ki (rat 5HT2C receptor; Table 3a, read-out: r5HT2C Ki): 25 µM | Ki (rat 5HT2C receptor; Table 3b, read-out: r5HT2C Ki): 25 µM
Compound: CCCCN(CCCC)c1ccc(CNC[C@H]2CC[C@H](NC(=O)c3cccc4ccccc34)CC2)cc1 [Example 13, N1-[4-([4-(DIBUTYLAMINO)BENZYL]AMINOMETHYL)CYCLOHEXYL]-1-NAPHTH-AMIDE]

Compound: COC(=O)C1=C(C)NC(=O)N(C(=O)NCCCN2CCC3(CC2)OCc2ccccc23)C1c1ccc(F)c(F)c1 (stereo not shown) [Example 20, 4-(3,4-DIFLUORPHENYL)-6-METHYL-2-OXO-3-{[3-(4-SPIRO[ISOBENZOFURAN-1(3H),4′-PIPERIDINE]PROPYL}-1,2,3,4-TETRAHYDROPYRIMIDINE-5-CARBOXYLIC ACID METHYL ESTER]
Ki (human GALR2 receptor): > 50 µM | Ki (human GALR2 receptor; read-out: hGALR2 Ki, Table 3b): > 50 µM | Ki (rat 5HT2C receptor; Table 3a, read-out: r5HT2C Ki): 15.1 µM | Ki (rat 5HT2C receptor; Table 3b, read-out: r5HT2C Ki): 15.1 µM | Ki (human α2C adrenoceptor; Table 3d, read-out: hα2C Ki): 0.138 µM | Ki [1]: 1.91 µM

Compound: O=C(CCCN1CCC(O)(c2ccc(Cl)cc2)CC1)c1ccc(Cl)cc1 [Example 29]
Ki (human GALR2 receptor): > 50 µM | Ki (human GALR2 receptor; read-out: hGALR2 Ki, Table 3b): > 50 µM | Ki (rat 5HT2C receptor): > 50 µM | Ki (rat 5HT2C receptor; read-out: r5HT2C Ki, Table 3b): > 50 µM
